# Patent publication US7230139B2, “Diterpenoid compounds, compositions thereof and their use as anti-cancer or anti-fungal agents” (priority 2004, dated 2007)
# pIC50: −log10 of the molar value. Like-named read-outs stand apart in the source and are kept apart here.
# What was measured:
# [1] = type: in vivo, CB17 SCID/SCID female mice; conditions: day 34; i.p. 3.5 mg/kg once every 3 days for fifteen days
# Experimental: C33A cells were transplanted subcutaneously into the flank of female CB17 SCID/SCID mice. Each mouse was inoculated with a suspension of 2×10^6 tumor cells per 100 μL on day zero. The following six treatment groups of ten mice each were used: (a) a negative control group treated with intravenous (i.v.) injection of vehicle, (b) a negative control group treated with intraperitoneal (i.p.) injection of vehicle, (c) a positive control group treated with i.p. injection of Cisplatin, (d) a group treated with i.v. injection of a Compound 50, (e) a group treated with i.p. injection of Compound 50, and (f) a group treated with subcutaneous (s.c.) injection of Compound 50.
# Treatment started on day thirteen after C33A cells transplantation for Compound 50 treated groups and on day fourteen for Cisplatin treated group. Compound 50 was administered i.v., i.p., and s.c. once daily for five consecutive days at a dose of 10, 15 and 30 mg/kg, respectively. Compound 50 was prepared as a working solution of 1.5 mg/mL in a vehicle solution of 20% Cremaphor EL (Sigma, St. Louis, Mo., USA), 10% Ethanol and 5% Dextrose (Abbot Laboratories, QC, Canada). The negative control groups were treated with vehicle alone. The positive control group was treated once every 3 days for fifteen days at a dose of 3.5 mg/kg. Cisplatin was formulated in PBS on each day of the injection and was administered i.p.
# The mice were weighed and the tumors measured on day 13 and every 2 to 3 days after treatment commenced. Observations continued for 36 days after initial tumor implantation. The changes in body weight and in the calculated tumor volume were plotted (FIGS. 4 and 5). Statistical analysis was performed using GraphPad Prism (GraphPad Software Inc., San Diego, Calif.). Two-way ANOVA was used to determine how the treatment affected tumor growth over time. Following the two-way ANOVA, post-tests were performed using the Benferroni method to determine the statistical difference between the mean tumor-size of the two groups being compared on every day that the tumors were measured. […]
# [2] = system: H1299 and C33A cancer cells versus HMEC and MRC-5 normal cells; conditions: 72 h; 1.6 μM Compound 48, 10 μM etoposide, 100 nM staurosporine
# Experimental: H1299 non-small cell lung carcinoma cells, C33A cervical carcinoma cells, Mrc-5 normal lung fibroblasts (American Type Culture Collection, Manassas, Va. USA) and HMEC normal mammary epithelial cells (Clonetics San Diego, Calif., USA) were cultured in RPMI 1640 media supplemented with 10% fetal calf serum (Sigma-Aldrich Inc., St. Louis, Mo. USA). The four cells lines were plated in 96-well microtiter plates (PerkinElmer Life Sciences Inc, Boston, Mass. USA) at a confluency that allowed them to reach confluence after 4 days of growth. One day after plating, the cells were treated either with 10 μM etoposide, 100 nM staurosporine or 1.6 μM of Compound 48. Stock solutions of each compound were prepared in dimethyl sulfoxide (Sigma-Aldrich Inc., St. Louis, Mo. USA), diluted in media then added to the cells. The total dimethyl sulfoxide on the cells was 1%. After 3 days of incubation, the ATP levels in the cells were quantified using the luminescent ViaLight detection system (Bio-Whittaker, Md., USA). The results were plotted relative to untreated control cells, which were set at 100.
# [3] = system: MIA-Paca-2 human pancreatic carcinoma; assay: Cell viability, cellular ATP levels (Vialight HS); type: cell-based; conditions: Table 5, MIA-Paca-2, pancreas, tumor, ATP levels 72 h post-treatment
# From the text: (§1) The following cell lines were used: A549 human non-small cell lung carcinoma; C33A human cervical carcinoma; H1299 human non-small cell lung carcinoma; Hep-3B human hepatocellular carcinoma; MIA-Paca-2 human pancreatic carcinoma; PC-3 human prostatic adenocarcinoma (American Type Culture Collection, Manassas, Va., USA); HMEC normal human mammary epithelial cells; HUVEC normal human umbilical vein endothelial cells; and NHBE normal human bronchial epithelial cells (Cambrex Bio Science, Rockland, Me., USA). […] HMEC, HUVEC and NHBE cell lines were cultured in MEGM, EGM-2 and BEGM media, respectively (Cambrex Bio Science, Rockland, Me., USA). The cell lines were plated in 96-well microtitre plate at a density of 2–4×10^3 cells per well. After 16 hours, the cells were treated with various concentrations of Compound 50a or Compound 50b. Stock solutions of Compound 50a and Compound 50b, respectively, were prepared in dimethyl sulfoxide at a concentration of 5 mM. Serial dilutions were prepared in RPMI, 10% FBS and 2% DMSO and then added to the cells. The total DMSO in the cell cultures was 1%. […] The IC50s were determined using a best-fit sigmoidal dose response curve with variable slope.
# [4] = system: PC-3 human prostatic adenocarcinoma; assay: Cell viability, cellular ATP levels (Vialight HS); type: cell-based; conditions: Table 5, PC-3, prostate, tumor, ATP levels 72 h post-treatment
# From the text: as §1
# [5] = system: HUVEC normal human umbilical vein endothelial cells; assay: Cell viability, cellular ATP levels (Vialight HS); type: cell-based; conditions: Table 5, ATP levels 72 h post-treatment
# From the text: as §1
# [6] = system: NHBE normal human bronchial epithelial cells; assay: Cell viability, cellular ATP levels (Vialight HS); type: cell-based; conditions: Table 5, ATP levels 72 h post-treatment
# From the text: as §1
# [7] = system: A549 human non-small cell lung carcinoma; assay: Cell viability, cellular ATP levels (Vialight HS); type: cell-based; conditions: Table 5, A549, NSCL-adrenocarinoma, tumor, ATP levels 72 h post-treatment
# From the text: as §1
# [8] = system: HMEC normal human mammary epithelial cells; assay: Cell viability, cellular ATP levels (Vialight HS); type: cell-based; conditions: Table 5, breast epithelial, ATP levels 72 h post-treatment
# From the text: as §1
# [9] = system: Hep-3B human hepatocellular carcinoma; assay: Cell viability, cellular ATP levels (Vialight HS); type: cell-based; conditions: Hep3B, Table 5, liver, tumor, ATP levels 72 h post-treatment
# From the text: as §1
# [10] = system: C33A human cervical carcinoma; assay: Cell viability, cellular ATP levels (Vialight HS); type: cell-based; conditions: C-33-A
# From the text: as §1
# (§2) The selected tumor cell lines included C33A human cervical carcinoma and H1299 human non-small cell lung carcinoma (American Type Culture Collection, Manassas, Va., USA). The cell lines were cultured in RPMI 1640 media supplemented with 10% FBS (Hyclone, Logan, Vt., USA), 100 U/mL penicillin, 100 μg/mL streptomycin and 2 mM L-glutamine (Invitrogen, Carlsbad, Calif., USA). The cell lines were plated in 96-well microtitre plate at a density of 2–4×10^3 cells per well. After 16 hours, the cells were treated with various concentrations of compound 66, 67, 68, 69 and 70, respectively. Stock solutions of compounds 66, 67, 68, 69 and 70 were prepared in dimethyl sulfoxide at a concentration of 5 mM. Serial dilutions were prepared in RPMI, 10% FBS and 2% DMSO and then added to the cells. The total DMSO on the cells was 1%. […] The IC50s were determined using a best-fit sigmoidal dose response curve with variable slope.
# [11] = system: H1299 human non-small cell lung carcinoma; assay: Cell viability, cellular ATP levels (Vialight HS); type: cell-based
# From the text: as §1, §2
# [12] = Body weight of SW480 tumor-bearing mice; type: in vivo, CB17 SCID/SCID female mice; conditions: i.v. once daily for five days; 10 mg/kg (50, 50a, 50b), 50 mg/kg (74a)
# Experimental: (§3) SW480 cells were transplanted subcutaneously into the flank of female CB 17 SCID/SCID mice. Each mouse was inoculated with a suspension of 1×10^6 tumor cells per 100 μL on day zero. The following five treatment groups of ten mice each were used: (a) a negative control group treated with intravenous (i.v.) injection of vehicle, (b) a group treated with i.v. injection of a Compound 50, (c) a group treated with i.v. injection of a Compound 50a, (d) a group treated with i.v. injection of Compound 50b, (e) a group treated with i.v. injection of Compound 74a.
# (§4) Treatment started on day twelve after SW480 cells transplantation and Compounds 50, 50a, 50b and 74a were administered i.v. once daily for five consecutive days at a dose of 10, 10, 10 and 50 mg/kg, respectively. Compound 50, 50a and 50b were prepared as a working solution of 1.5 mg/mL in a vehicle solution of 20% Cremaphor EL (Sigma, St. Louis, Miss., USA), and 10% Ethanol. Compound 74a was prepared as a working solution of 5 mg/mL in a vehicle solution of 5% Dextrose (Abbot Laboratories, QC, Canada). The negative control groups were treated with vehicle solution of 20% Cremaphor EL and 10% Ethanol alone.
# (§5) The mice were weighed and the tumors measured on day 12 and every 2 to 3 days after treatment commenced. Observations continued for 23 days after initial tumor implantation. The changes in body weight and in the calculated tumor volume were plotted (FIGS. 9 and 10). Statistical analysis was performed using GraphPad Prism (GraphPad Software Inc., San Diego, Calif.). Two-way ANOVA was used to determine how the treatment affected tumor growth over time. Following the two-way ANOVA, post-tests were performed using the Benferroni method to determine the statistical difference between the mean tumor-size of the two groups being compared on every day that the tumors were measured.
# [13] = system: SW480 human colon carcinoma cancer cells; assay: SW480 colon carcinoma xenograft in SCID mice; type: in vivo, CB17 SCID/SCID female mice
# Experimental: The resultant mice are a model for a human having colon carcinoma cancer.
# The SW480 human colon carcinoma cancer cells were maintained in RPMI supplemented with 10% inactivated fetal bovine serum and 1% penicillin-streptomycin-L-Glutamine, under 5% CO2 at 37° C., and passaged twice a week. The cells were grown at a confluency lower than 70% and then collected with Trypsin (Bio-Whittaker, Md., USA). The cells were then centrifuged and washed twice using phosphate buffered saline solution (PBS) and resuspended in PBS at 1×10^6 cells per 100 μl. Viability was examined by staining with Trypan Blue and only flasks with cell viability of greater than 95% were used for in vivo studies.
# as §3, §4, §5
# [14] = Table 6, ATP levels 72 h post-treatment vs untreated cells, read-out: IC50 C33A
# [15] = NCI-H1299, Table 6, ATP levels 72 h post-treatment vs untreated cells, read-out: IC50 H1299
# [16] = Table 7, cellular ATP levels, read-out: IC50 C33A
# [17] = NCI-H1299, Table 7, cellular ATP levels, read-out: IC50 H1299
# [18] = Table 8, cellular ATP levels, read-out: IC50 C33A
# [19] = NCI-H1299, Table 8, cellular ATP levels, read-out: IC50 H1299
smiles,measurement,setting,value
"N.N.[Cl][Pt][Cl] [Cisplatin, reference compound]",Weight loss,[1],19%
"COc1cc2c(cc1C)C(=O)C(O)=C1C(C)(C)C(=O)C=CC12C (stereo not drawn) [Compound 48, 10-Hydroxy-6-methoxy-1,1,4a,7-tetramethyl-1H,4aH-phenanthrene-2,9-dione]",Selective cytotoxicity towards cancer cells,[2],selectively cytotoxic towards cancer cells
COc1ccc2c(c1)[C@@]1(C)C=CC(=O)C(C)(C)C1=C(O)C2=O [Compound 50a],pIC50,[3],6.18
same,pIC50,[4],6.43
same,pIC50,[5],5.77
same,pIC50,[6],5.92
same,pIC50,[7],6.20
same,pIC50,[8],5.64
same,pIC50,[9],6.01
same,pIC50,"[10]; Table 5, C33A, cervix, tumor, ATP levels 72 h post-treatment, read-out: IC50",6.30
same,pIC50,"[11]; NCI-H1299, Table 5, H1299, NSCL-LC carcinoma, tumor, ATP levels 72 h post-treatment vs untreated cells, read-out: IC50",6.26
same,Change in body weight,[12],non-significant change in body weight
same,Tumor growth compared to vehicle,[13]; i.v. 10 mg/kg once a day for five days,significant reduction (p<0.001)
CCC1(C)C(=O)C=CC2(C)C1=C(O)C(=O)c1ccc(OC)cc12 (stereo not drawn) [Compound 66],pIC50,[10]; [14],5.81
same,pIC50,[11]; [15],5.84
C=CCC1(C)C(=O)C=CC2(C)C1=C(O)C(=O)c1ccc(OC)cc12 (stereo not drawn) [Compound 67],pIC50,[10]; [14],5.92
same,pIC50,[11]; [15],6.02
COc1ccc2c(c1)C1(C)C=CC(=O)C(C)(Cc3ccccc3)C1=C(O)C2=O (stereo not drawn) [Compound 68],pIC50,[10]; [14],5.60
same,pIC50,[11]; [15],5.68
COC(=O)C1=CC2(C)C(=C(O)C(=O)c3ccc(OC)cc32)C(C)(C)C1=O (stereo not drawn) [Compound 69],pIC50,[10]; [14],6.06
same,pIC50,[11]; [15],5.87
COc1ccc2c(c1)C1(C)C=CC(=O)C(C)(C)C1C(=O)C2=O (stereo not drawn) [Compound 70],pIC50,[10]; [14],4.80
same,pIC50,[11]; [15],4.77
CCOP(=O)(OCC)OC1=C2C(C)(C)C(=O)C=CC2(C)c2cc(OC)ccc2C1=O (stereo not drawn) [Compound 72],pIC50,[10]; read-out: IC50 C33A,6.67
same,pIC50,"[11]; NCI-H1299, read-out: IC50 H1299",6.00
COc1ccc2c(c1)C1(C)C=CC(=O)C(C)(C)C1=C(OP(=O)(OCc1ccccc1)OCc1ccccc1)C2=O (stereo not drawn) [Compound 73],pIC50,[10]; [16],6.18
same,pIC50,[11]; [17],5.81
COc1ccc2c(c1)[C@@]1(C)C=CC(=O)C(C)(C)C1=C(OP(=O)(O)O)C2=O [Compound 74a],Change in body weight,[12],non-significant change in body weight
same,Tumor growth compared to vehicle,[13]; i.v. 50 mg/kg once daily for five days,significantly reduction (p<0.001)
CC1(C)C(=O)C=CC2(C)C1=C(O)C(=O)c1ccc(O)cc12 (stereo not drawn) [Compound 76],pIC50,[10]; [16],6.70
same,pIC50,[11]; [17],6.52
COc1ccc2c(c1)C1(C)C(=C(O)C2=O)C(C)(C)C(=O)CC1SCC(NC(C)=O)C(=O)O (stereo not drawn) [Compound 80],pIC50,[10]; [18],6.67
same,pIC50,[11]; [19],6.68
COc1ccc2c(c1)C1(C)C(=C(O)C2=O)C(C)(C)C(=O)CC1SCC(NC(=O)CCC(N)C(=O)O)C(=O)NCC(=O)O (stereo not drawn) [Compound 81],pIC50,[10]; [18],6.73
same,pIC50,[11]; [19],6.81
COc1cc([C@@H]2c3cc4c(cc3[C@@H](O[C@@H]3O[C@@H]5CO[C@@H](C)O[C@H]5[C@H](O)[C@H]3O)[C@H]3COC(=O)[C@H]23)OCO4)cc(OC)c1O [etoposide],Selective cytotoxicity towards cancer cells,[2],selectively cytotoxic towards cancer cells
